Converted amounts (≈) assume the structure as drawn.
Experiments:
Assay type in all cases: functional, cell-based; call rule not given here
HT-29 = assay: Anticancer activity against human HT-29 cells by MTT method
A549 = assay: Anticancer activity against human A549 cells by MTT method
MCF7 = assay: Anticancer activity against human MCF7 cells by MTT method
[1] = Homo sapiens, A549, read-out: IC50
[2] = Homo sapiens, HT-29, read-out: IC50

SMILES | IC50 (HT-29; ht-29) | IC50 (A549; [1]) [µg/mL] | IC50 (MCF7) | IC50 (HT-29; [2]) [µg/mL] | IC50 (A549; a549)
CCCCC[C@@H](O)[C@@H](O)/C=C/C(=O)N1CCCCC1 | Not Active | 182 (≈ 676 µM) | Not Active | – | –
CCC[C@@H](O)[C@H](O)/C=C/C(=O)NCC(C)C | – | – | Not Active | 181 (≈ 789 µM) | Not Active
CCCCC[C@@H](O)[C@H](O)/C=C/C(=O)N1CCCCC1 | – | 135 (≈ 501 µM) | Not Active | 125 (≈ 464 µM) | –

Reference: ChEMBL document CHEMBL1156042, “First stereoselective total synthesis and anticancer activity of new amide alkaloids of roots of pepper” (Bioorg Med Chem Lett, 2009)
